The subject of data set [1] is L. (V.) braziliensis promastigotes. Briefly: Antileishmanial activity on promastigotes (MTT, 72 h). Format: cell-based, Leishmania (Viannia) braziliensis. As to the method:
Leishmania (Viannia) braziliensis (MHOM/BR/1975/M2903) was utilized in this study. The promastigote forms of these parasites were maintained in vitro in Schneider’s insect medium pH 7.2, supplemented with 20% fetal bovine serum (FBS) and 1% antibiotic solution (100 U/mL penicillin and 100 μg/mL streptomycin) at a temperature of 26 ± 1 °C in a Biochemical Oxygen Demand (BOD) incubator (Eletrolab EL202, São Paulo, Brazil), with regular aeration and weekly subculturing.
(§1) Assessment of antileishmanial activity against promastigote and amastigote axenic forms of parasites followed the method described by Rodrigues et al. and involved the following steps: L. (V.) braziliensis parasites were cultured in 96-well plates at a concentration of 1 × 10^6 parasites per well. Each well contained 100 μL of supplemented Schneider medium. Serial concentrations of the test substances, ranging from 50 to 1.56 μmol/L, were prepared. Reference drugs, meglumine antimoniate (20 to 40,000 μmol/L) and amphotericin B (0.031 to 2 μmol/L) were also prepared. These concentrations were used to assess the effects of the test substances in comparison to reference drugs. The plates were incubated in a BOD incubator at 26 °C for 72 h. After the 72 h incubation period, 10 μL of MTT (5 mg/mL) was added to each well. The plates were then incubated for an additional 4 h. At the end of the 4 h incubation, formazan crystals formed by the reduction of the MTT salt were solubilized by adding 50 μL of a 10% (w/v) sodium dodecyl sulfate (SDS) solution in distilled water. Absorbance was measured using a microplate reader at a wavelength of 540 nm (Biosystems ELx800 model, Curitiba, PR, Brazil). This measurement quantified the metabolic activity of the parasites, which is indicative of their viability and proliferation. Schneider medium containing 0.2% DMSO was used as a negative control in the tests.
(§2) The different mean concentrations for promastigotes (IC50) and macrophages (CC50) were calculated using nonlinear regression. For comparisons between groups, ANOVA analysis of variance was performed followed by Tukey’s test in a statistical program, taking the p-value < 0.05 as the maximum level of statistical significance.

In a further data set the test system is aorta. Briefly: Vasodilator effect on aortic rings (KCl contraction). Conditions: Cavia porcellus; guinea pig aortic rings. The procedure: (§3) Guinea pigs of either sex weighing between 250 or 380 g were utilized in this study. The animals were housed in a controlled environment in an air-conditioned room, maintaining a temperature of 22 to 24 °C and a relative humidity of 50% to 60%. A 12 h light–dark cycle was maintained.
(§4) On the day of the experiments, the animals were euthanized via cervical dislocation. The heart, aorta, pulmonary artery, and ileum were surgically removed and immersed in Krebs–Henseleit solution, with the following composition: NaCl 144.9 mM, KCl 4.73 mM, CaCl2 3.2 mM, MgSO4 1.18 mM, NaHCO3 24.9 mM, KH2PO4 1.18 mM, and glucose 10 mM, with the pH maintained at 7.2–7.4. This solution was continuously aerated with a mixture of 95% O2 and 5% CO2.
Papillary muscles were isolated from the right ventricle of the heart and meticulously cleared of Purkinje fibers to prevent spontaneous activity. To ensure adequate oxygen supply, only muscles with a diameter less than 0.87 mm were used. The right atrium was also dissected for assessment of chronotropic activity. […]
(§5) Following a 30 min control period, different concentrations of test compounds were cumulatively added to the bath solution every 45 min until a stable effect was achieved. The responses were recorded using a chart recorder (BD 112 Dual Channel, Kipp &Zonen, PO Box 507, 2624 BC, Delft, Holland) for subsequent evaluation. […]

The test system of the next data set is right atrium. Briefly: Chronotropic effect on isolated right atrium. Also noted: species or system guinea pig. Conditions: Cavia porcellus; isolated guinea pig right atrium, 3 to 100 µmol/L; read-out: EC50 reduction of heart rate activity. The procedure: as §3, §4
(§6) Papillary muscles were isolated from the right ventricle of the heart and meticulously cleared of Purkinje fibers to prevent spontaneous activity. To ensure adequate oxygen supply, only muscles with a diameter less than 0.87 mm were used. The right atrium was also dissected for assessment of chronotropic activity. Both the aorta and pulmonary artery were cleaned and cut into 5 mm rings, while the ileum was sectioned into pieces measuring 1 to 2 cm.
(§7) One end of the dissected tissues was securely tied with silver wire for attachment to a tissue holder, while the other end was connected to a force transducer (Transbridge™, 4-Channel Transducer Amplifier, World Precision Instruments, Sarasota, FL, USA). For contractile measurements, the terminal ileum was stimulated with 60 mM KCl, and the pulmonary artery and aorta rings were exposed to a 90 mM KCl solution. Papillary muscles were electrically stimulated using an Anapulse Stimulator Model 301-T and an Isolation Unit Model 305-1 (WPI, Hamden, CT, USA) with rectangular pulses of 3 ms duration at a frequency of 1 Hz. The amplitude of the stimulation pulse was maintained at 10% above the threshold level. To optimize contractility, a constant resting tension was applied throughout the experiment: 3.9 mN for papillary muscle, 4.9 mN for terminal ileum, 10.4 mN for the right atrium, and 19.6 mN for aorta and pulmonary artery rings.
(§8) Following a 30 min control period, different concentrations of test compounds were cumulatively added to the bath solution every 45 min until a stable effect was achieved. The responses were recorded using a chart recorder (BD 112 Dual Channel, Kipp &Zonen, PO Box 507, 2624 BC, Delft, Holland) for subsequent evaluation. Stock concentrations of the test compounds were prepared using DMSO. To account for any potential DMSO effect, control experiments were conducted with the solvent alone, and the observed effects were subtracted from the responses elicited by the test compounds.

The subject of a further data set is pulmonary artery. Briefly: Vasodilator effect on pulmonary artery rings (KCl contraction). Conditions: Cavia porcellus; guinea pig pulmonary artery rings. As to the method: as §3, §4, §6
One end of the dissected tissues was securely tied with silver wire for attachment to a tissue holder, while the other end was connected to a force transducer (Transbridge™, 4-Channel Transducer Amplifier, World Precision Instruments, Sarasota, FL, USA). For contractile measurements, the terminal ileum was stimulated with 60 mM KCl, and the pulmonary artery and aorta rings were exposed to a 90 mM KCl solution. […]
as §5

In the next data set the test system is terminal ileum. The experiment in a line: Spasmolytic effect on terminal ileum (KCl contraction). Conditions: guinea pig terminal ilea, KCl-induced contraction. The procedure:
as §3, §4, §6, §7, §8

Another data set deals with RAW 264.7 macrophages. The experiment in a line: Cytotoxicity against RAW 264.7 macrophages (MTT). Format: cell-based, murine. Conditions: RAW 264.7 cells, 72 h. As to the method:
(§9) Murine macrophage cell line RAW 264.7 was used in this study. The cells were cultured in 75 cm^2 cell culture flasks (Corning Glass Workers, New York, NY, USA) using DMEM medium with a pH of 7.2, supplemented with 10% FBS and 1% antibiotic solution (containing 100 U/mL penicillin and 100 μg/mL streptomycin). The cells were maintained in an incubator at a temperature of 37 °C with 5% CO2. The spikes were performed after the cells reached complete confluence, characterized by the formation of a monolayer of cells around 48 h to 72 h after packaging.
(§10) In this study, we utilized the RAW 264.7 macrophages line (obtained from ATCC: code TIB-71™),human embryonic kidney cell line HEK-293 (obtained from ATCC: code CRL-1573™)and two human cancer cell cultures: the colon carcinoma cell line CaCo-2 and the adenocarcinomic human alveolar basal epithelial cell A549 (also obtained from ATCC: codesHTB-37™ and CCL-185™).These cell lines were cultured in Dulbecco’s modified Eagle medium (DMEM) from Gibco by Life Technologies (LifeTech Austria, Vienna, Austria). The growth medium was supplemented with 5% fetal bovine serum (FBS) from Gibco by Life Technologies and 1% penicillin-streptomycin obtained from Sigma-Aldrich (Vienna, Austria). The cells were maintained at 37 °C with 5% CO2 in a humidified incubator, and regular checks for mycoplasma contamination were carried out.
(§11) For experimental purposes, the cells were seeded into 96-well plates at a density of 2 × 10^4 cells/mL, with each well containing 100 µL of the cell suspension. The cells were allowed to adhere for 24 h. Subsequently, they were exposed to 100 µL of the test compounds, which were diluted in DMEM, with concentrations ranging from 2 to 600 µmol/L. The stock solutions of these compounds were prepared in water with 10% (v/v) dimethyl sulfoxide (DMSO) and stored at 4 °C.
(§12) To assess cell viability after 72 h of exposure to the compounds, we employed a 3-(4,5-dimethylthiazol-2-yl)-2,5-diphenyltetrazolium bromide (MTT)-based vitality assay kit (EZ4U, Biomedica, Vienna, Austria). Briefly, we added 20 µL of the EZ4U assay solution to each well and incubated the plates in the dark for 2 h. Subsequently, we measured the absorbance using a microplate reader at 450 nm, with 620 nm as a reference to reduce unspecific background values. For reliability, all experiments were conducted three times with triplicate samples.
as §2

Data set [2] deals with L. (V.) braziliensis axenic amastigotes. Briefly: Antileishmanial activity on axenic amastigotes (MTT, 72 h). The format is cell-based, Leishmania (Viannia) braziliensis. As to the method: In vitro amastigogenesis was performed by transformation from promastigotes at the stationary phase of growth to obtention axenic amastigotes. This process involved altering the culture conditions to Schneider’s medium with a pH of 5.5, supplementing them with 5% FBS, and incubating them at a temperature of 32 °C [17].
as §1

Data set [3] relates to L. (V.) braziliensis intramacrophage amastigotes. The experiment in a line: Treatment of RAW 264.7 macrophages infected with L. (V.) braziliensis (intramacrophage amastigotes). Conditions: RAW 264.7 infected with L. (V.) braziliensis, 72 h of treatment. Format: cell-based, Leishmania (Viannia) braziliensis. The procedure: RAW 264.7 macrophages (1 × 10^6 cells/mL) were seeded in 24-well plates containing sterile glass slides, and approximately 500 μL of supplemented DMEM medium was added. The plates were then incubated at 37 °C with 5% CO2 for 4 h to facilitate cell adhesion. Following the adhesion period, promastigotes (1 × 10^7) in the stationary growth phase were introduced into the wells for infection. The plates were then incubated for an additional 4 h to allow infection to take place. Afterward, the medium was carefully removed, and the wells were washed three times with PBS to eliminate any nonadherent cells. Fresh medium containing serial concentrations of the test substances, ranging from 0.78 to 25 μmol/L, was added to the wells. Additionally, a range of concentrations of glucantime (25 to 800 μmol/L) was included for comparison. The treatment was carried out for 72 h in an incubator at 37 °C with 5% CO2. At the end of the 72 h treatment period, the glass lamina was removed from each well and stained using rapid panoptic stain (Laborklin®, Curitiba, Paraná, Brazil). The stained samples were mounted on permanent slides using Entelan® (Sigma-Aldrich, St. Louis, MO, USA), and antileishmanial activity was assessed by measuring the infection rate and counting the number of amastigotes per macrophage. Quantification was performed using light microscopy at a magnification of 1000×, and a total of 300 macrophages per lamina were evaluated. As a negative control, half DMEM containing 0.2% DMSO was used.

Data set [4] in a line: Cytotoxicity against RAW 264.7 macrophages (MTT). The format is cell-based, murine. Conditions: mouse, RAW 264.7 macrophages, pH 7.2, RAW 264.7 cells. The procedure: as §9, §10, §11, §12, §2

Four compounds from PMC10813298, “Evidence of Guanidines Potential against Leishmania (Viannia) braziliensis: Exploring In Vitro Effectiveness, Toxicities and of Innate Immunity Response Effects” (Biomolecules, 2023) can be followed below.

“Also recorded” adds a separate entry of the source. Read-outs that look alike come from different tables or passages of the source. Some results are limits rather than exact numbers.

As to `O=C(/N=C(/NCc1ccccc1)Nc1cccc(Br)c1)c1ccccc1` [LQOF-G36], in data set [1] (Leishmania braziliensis), the IC50 was over 50 µM. Moreover, the EC50 in the data set on aorta turned out to be 29 µM; in the data set with right atrium it was 38 µM; in the data set on pulmonary artery it was 23.5 µM. For the same compound, in the data set with terminal ileum, the “spasmolytic effect / contraction force in the terminal ileum” value was “decrease in contraction force; also recorded: spasmolytic effect”.

For “Meglumine antimoniate [Meglumine At, reference compound]”, the IC50 in [1] was 19300 µM. Further, in the data set with RAW 264.7 macrophages, the CC50 turned out to be 846 ± 13 µM. Moreover, the EC50 in data set [2] is 2.17 mM; in data set [3] it was 452 ± 14.3 µM; in [3] (listed as Meglumine antimoniate) it was 452 µM.

Turning to `O=C(/N=C(/NCc1ccccc1)Nc1ccccc1Br)c1ccccc1` [LQOF-G35], the IC50 in [1] (Leishmania braziliensis) amounted to 25.9 ± 1.6 µM. Besides, the CC50 at 72 h in data set [4] came out at 232 ± 3.5 µM.

Compound `C[C@@H]1[C@H](O)[C@@H](C)/C=C/C=C/C=C/C=C/C=C/C=C/C=C/[C@H](O[C@@H]2O[C@H](C)[C@@H](O)[C@H](N)[C@@H]2O)C[C@@H]2O[C@](O)(C[C@@H](O)C[C@@H](O)[C@H](O)CC[C@@H](O)C[C@@H](O)CC(=O)O[C@H]1C)C[C@H](O)[C@H]2C(=O)O` [Amphotericin B, reference compound] yielded an IC50 in data set [1] (Leishmania braziliensis) of 0.3 ± 0.01 µM. Further, the CC50 in the data set with RAW 264.7 macrophages was 0.5 ± 0.1 µM. Also, in [4], the 50% cytotoxic concentration (CC50) at 72 h was 0.55 µM. Moreover, the EC50 in data set [2] (Leishmania braziliensis) turned out to be 0.0004 mM; in [3] (Leishmania braziliensis, RAW264.7, 72 h), 0.35 µM; in data set [3], 0.3 ± 0.02 µM.

What is called IC50 is the concentration that inhibits the measured activity by half. A high value points to weaker potency. A word on the EC50: it is the concentration at which the effect is half-maximal. A word on the CC50: it is the concentration giving 50% cytotoxicity. High values mean better tolerance by the cells, low ones harm at low concentration.
